Measurements: patent publication US20130116241A1, “NOVEL INHIBITOR COMPOUNDS OF PHOSPHODIESTERASE TYPE 10A” (AbbVie Inc., priority 2011, published 2013)
Structures can show the parent of a compound that is named as a salt.

target: human PDE10A (UniProt Q9Y233); assay: Measurement of PDE activity (recombinant enzyme, HTRF cAMP kit); assay type: biochemical; details: Table 1, substrate 20 nM for PDE10, 60 minutes at 29 C, read-out: IC50
Method: The recombinant PDE proteins are used in in vitro enzymatic reaction for measurement of PDE activity. These recombinant proteins, including PDE10A (human, rat and mouse PDE10) and isoforms of PDEs 1, 3, 4, and 5, were purchased from commercial vendor BPS Bioscience. The enzymatic activity of PDEs was determined by cAMP measurement kit from CisBio (IBA) using HTRF technology.
The PDE enzymatic reaction was carried out in assay buffer (20 mM Tris-HCl pH7.5, 10 mM MgCl2, 0.1% bovine serum albumin) containing enzyme and substrate. The PDE enzymes concentration ranged from 10 pM-250 pM, depending on each enzyme's specific activity. The substrate cyclic nucleotide (cAMP or cGMP) concentration used in the assay was 20 nM for PDE10, and 100 nM for other PDEs. The inhibitory effect of compound was determined by incubating various concentration of inhibitor in the enzymatic assay. Typically, compound was serial diluted in DMSO then further diluted in assay buffer. Next, the compound at varying concentration was mixed with PDE enzyme. The reaction was initiated by addition of cyclic nucleotide substrate, and incubated for 60 minutes at 29 C. The reaction was stopped by addition of lysis buffer from assay kit. The cAMP-d2 and anti-cAMP cryptate in the lysis buffer detected the level of cAMP left from the PDE hydrolysis reaction. The PDE activity is reversely correlated with the amount of cAMP left in the reaction and can be converted to the percent activity of an uninhibited control (100%). Thus, IC50 value of inhibitor can be obtained by plotting inhibitor concentration against PDE activity at that concentration.

Chain of human PDE10A (Q9Y233 290-1055 limits assumed): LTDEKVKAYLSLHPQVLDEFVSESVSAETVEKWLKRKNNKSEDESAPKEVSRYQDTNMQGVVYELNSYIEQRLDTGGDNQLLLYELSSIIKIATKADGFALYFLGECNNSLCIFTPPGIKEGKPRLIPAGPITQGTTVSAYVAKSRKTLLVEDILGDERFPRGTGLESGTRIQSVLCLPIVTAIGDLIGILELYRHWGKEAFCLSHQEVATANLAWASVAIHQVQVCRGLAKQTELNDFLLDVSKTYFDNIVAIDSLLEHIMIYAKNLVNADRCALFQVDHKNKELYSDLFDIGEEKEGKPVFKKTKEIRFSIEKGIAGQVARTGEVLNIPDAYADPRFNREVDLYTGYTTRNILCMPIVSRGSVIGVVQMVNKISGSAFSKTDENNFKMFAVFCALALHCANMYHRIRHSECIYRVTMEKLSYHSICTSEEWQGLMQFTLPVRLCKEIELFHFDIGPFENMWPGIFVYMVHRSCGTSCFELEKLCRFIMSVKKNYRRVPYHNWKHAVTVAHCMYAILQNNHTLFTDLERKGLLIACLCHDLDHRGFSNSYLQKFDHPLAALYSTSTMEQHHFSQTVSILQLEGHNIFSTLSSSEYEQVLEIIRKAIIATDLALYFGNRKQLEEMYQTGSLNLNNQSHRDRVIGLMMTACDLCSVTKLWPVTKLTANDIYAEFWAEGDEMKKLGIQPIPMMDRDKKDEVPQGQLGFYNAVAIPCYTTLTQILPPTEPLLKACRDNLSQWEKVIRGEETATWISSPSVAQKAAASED

Compound	IC50 [nM]
O=c1c2c(-c3cncnc3)cccc2cnn1CCc1ccc2ccccc2n1 [Example 124, 8-(Pyrimidin-5-yl)-2-[2-(quinolin-2-yl)ethyl]phthalazin-1(2H)-one]	< 100
O=c1c2c(-c3ccccc3)cccc2cnn1CCc1ccc2ccccc2n1 [Example 159, 8-Phenyl-2-[2-(quinolin-2-yl)ethyl]phthalazin-1(2H)-one]	< 100
N#CC1CCN(c2cccc3ccn([C@@H]4C[C@H]4c4ccc5ccccc5n4)c(=O)c23)CC1 (relative stereo) [Example 247, anti 1-(1-oxo-2-(2-(quinolin-2-yl)cyclopropyl)-1,2-dihydroisoquinolin-8-yl)piperidine-4-carbonitrile]	< 100
O=c1c2ccccc2c(N2CCOCC2)nn1CCc1cn2ccccc2n1 [Example 201, 2-[2-(Imidazo[1,2-a]pyridin-2-yl)ethyl]-4-(morpholin-4-yl)phthalazin-1(2H)-one]	200 to 500
O=c1c2c(C3CCNCC3)csc2ccn1CCc1ccc2ccccc2n1 [Example 215, 3-(Piperidin-4-yl)-5-[2-(quinolin-2-yl)ethyl]thieno[3,2-c]pyridin-4(5H)-one trifluoroacetate]	100 to 200
Cc1n[nH]c(C)c1-c1cccc2cnn(CCc3ccc4ccccc4n3)c(=O)c12 [Example 121, 8-(3,5-Dimethyl-1H-pyrazol-4-yl)-2-[2-(quinolin-2-yl)ethyl]phthalazin-1(2H)-one]	100 to 200
COc1ccc(-c2cccc3cnn(CCc4ccc5ccccc5n4)c(=O)c23)cc1 [Example 104, 8-(4-Methoxyphenyl)-2-[2-(quinolin-2-yl)ethyl]phthalazin-1(2H)-one]	100 to 200
O=c1c2c(C3=COCC3)cccc2ccn1C1CC1c1ccc2ccccc2n1 (stereo not drawn) [Example 269, anti 8-(4,5-dihydrofuran-3-yl)-2-(2-(quinolin-2-yl)cyclopropyl)isoquinolin-1(2H)-one]	< 100
O=c1c2cccc(-c3cccnc3)c2ccn1C1CC1c1ccc2ccccc2n1 (centres unmarked) [compound 298]	100 to 200
O=c1c2c(N3CCC4(COC4)C3)cccc2ccn1C1CC1c1ccc2ccccc2n1 (single isomer, unassigned) [Example 258, anti (−) 2-(2-(quinolin-2-yl)cyclopropyl)-8-(2-oxa-6-azaspiro[3.4]octan-6-yl)isoquinolin-1(2H)-one]	< 100
O=c1c2c(-c3ccc(F)cc3F)csc2cnn1CCc1ccc2ccccc2n1 [Example 67, 3-(2,4-difluorophenyl)-5-[2-(quinolin-2-yl)ethyl]thieno[2,3-d]pyridazin-4(5H)-one]	100 to 200
O=c1c2c(-c3ccncc3F)cccc2ccn1[C@@H]1C[C@H]1c1ccc2ccccc2n1 (relative stereo) [Example 242, anti 8-(3-fluoropyridin-4-yl)-2-(2-(quinolin-2-yl)cyclopropyl)isoquinolin-1(2H)-one]	< 100
O=c1c2c(-c3ccncc3)cccc2ccn1/C=C/c1ccc2ccccc2n1 [Example 221, (E)-8-(Pyridin-4-yl)-2-(2-(quinolin-2-yl)vinyl)isoquinolin-1(2H)-one]	< 100
O=c1c2c(-c3cc(F)ccc3F)csc2cnn1CCc1ccc2ccccc2n1 [Example 76, 3-(2,5-difluorophenyl)-5-[2-(quinolin-2-yl)ethyl]thieno[2,3-d]pyridazin-4(5H)-one]	100 to 200
O=c1c2c(N3CC[C@H](O)C3)cccc2ccn1C1CC1c1ccc2ccccc2n1 (stereo partly drawn) [Example 249, anti 8-((3S)-3-hydroxypyrrolidin-1-yl)-2-(2-(quinolin-2-yl)cyclopropyl)isoquinolin-1(2H)-one di[(2E)-but-2-enedioate]]	200 to 500
O=c1c2c(-c3ccncc3)csc2cnn1CCc1cn2ccccc2n1 [Example 96, 5-[2-(Imidazo[1,2-a]pyridin-2-yl)ethyl]-3-(pyridin-4-yl)thieno[2,3-d]pyridazin-4(5H)-one]	< 100

Compound	IC50 [nM]
O=c1c2c(N3CC4(COC4)C3)cccc2cnn1CCc1cn2ccccc2n1 [compound 334, 2-[2-(imidazo[1,2-a]pyridin-2-yl)ethyl]-8-(2-oxa-6-azaspiro[3.3]hept-6-yl)phthalazin-1(2H)-one]	100 to 200
CC1(CNc2cccc3cnn(CCc4cn5ccccc5n4)c(=O)c23)COC1 [compound 403]	< 100
O=c1c2c(-c3ccc4c(c3)OCO4)cccc2cnn1CCc1ccc2ccccc2n1 [Example 138, 8-(1,3-Benzodioxol-5-yl)-2-[2-(quinolin-2-yl)ethyl]phthalazin-1(2H)-one]	200 to 500
O=c1c2c(-c3ccc4cc[nH]c4c3)cccc2cnn1CCc1ccc2ccccc2n1 [Example 123, 8-(1H-Indol-6-yl)-2-[2-(quinolin-2-yl)ethyl]phthalazin-1(2H)-one]	200 to 500
O=c1c2c(-c3ccncc3)csc2ccn1C1CC1c1ccc2ccccc2n1 (racemic) [Example 224, anti (rac) 3-(Pyridin-4-yl)-5-(2-(quinolin-2-yl)cyclopropyl)thieno[3,2-c]pyridin-4(5H)-one]	< 100
O=c1c2c(NC3CCCOC3)cccc2cnn1CCc1cn2ccccc2n1 (centres unmarked) [compound 392, hydrochloride]	< 100
8-(2-Fluoro-5-methoxyphenyl)-2-[2-(quinolin-2-yl)ethyl]phthalazin-1(2H)-one [Example 164]	100 to 200
O=c1c2c(-c3ccncc3)cccc2c(-c2ccncc2)nn1CCc1cn2ccccc2n1 [compound 367, 2-[2-(imidazo[1,2-a]pyridin-2-yl)ethyl]-4,8-di(pyridin-4-yl)phthalazin-1(2H)-one]	< 100
COc1ccc(-c2csc3cnn(CCc4ccc5ccccc5n4)c(=O)c23)cc1F [Example 78, 3-(3-fluoro-4-methoxyphenyl)-5-[2-(quinolin-2-yl)ethyl]thieno[2,3-d]pyridazin-4(5H)-one]	200 to 500
O=c1c2c(-c3ccncc3)csc2cnn1CCc1nc2ccccc2[nH]1 [compound 317, hydrochloride]	< 100
O=c1c2c(-c3ccncc3)cccc2c(F)cn1C1CC1c1ccc2ccccc2n1 (stereo not drawn) [Example 275, anti 4-fluoro-8-(pyridin-4-yl)-2-(2-(quinolin-2-yl)cyclopropyl)isoquinolin-1(2H)-one]	< 100
O=c1c2c(-c3ccnc(F)c3)cccc2ccn1[C@@H]1C[C@H]1c1ccc2ccccc2n1 (relative stereo) [Example 243, anti 8-(2-fluoropyridin-4-yl)-2-(2-(quinolin-2-yl)cyclopropyl)isoquinolin-1(2H)-one]	< 100
O=c1c2c(-c3cccnc3)cccc2cnn1CCc1cn2ccccc2n1 [Example 165, 2-[2-(Imidazo[1,2-a]pyridin-2-yl)ethyl]-8-(pyridin-3-yl)phthalazin-1(2H)-one]	200 to 500
COc1ccc(-c2cccc3cnn(CCc4ccc5ccccc5n4)c(=O)c23)cc1F [Example 154, 8-(3-Fluoro-4-methoxyphenyl)-2-[2-(quinolin-2-yl)ethyl]phthalazin-1(2H)-one]	200 to 500
O=c1c2c(-c3ccncc3)csc2ccn1CCc1ccc2cc(F)ccc2n1 [compound 309, 5-[2-(6-fluoroquinolin-2-yl)ethyl]-3-(pyridin-4-yl)thieno[3,2-c]pyridin-4(5H)-one]	< 100
O=c1c2c(N3CCCOCC3)cccc2cnn1CCc1cn2ccccc2n1 [Example 190, 2-[2-(Imidazo[1,2-a]pyridin-2-yl)ethyl]-8-(1,4-oxazepan-4-yl)phthalazin-1(2H)-one hydrochloride]	100 to 200
